How the values were obtained:
[1] = tested on: TEAD reporter gene activity; test: TEAD reporter gene assay (MCF7 TEAD reporter cell line); format: cell-based; conditions: Homo sapiens; TEAD luciferase reporter in MCF7 cells, 24 hours; read-out: IC50 TEAD RGA (converted)
Excerpt: A TEAD reporter cell line was purchased from BPS Bioscience (cat. no. 60618). It contains the firefly luciferase gene under control of TEAD responsive elements stably integrated into the human breast cancer MCF7 cells. In proliferating cells, a basal level of unphosphorylated YAP/TAZ resides in the nucleus and drives the TEAD-dependent expression of the luciferase reporter. The cells were cultivated as recommended by the supplier. Inhibition of TEAD reporter gene activity by experimental compounds was measured using white, clear-bottom, 96 well cell culture plates (Greiner Bio-One, cat. no. 655098). The cells were seeded at a density of 20,000 cells per well in 100 μL growth medium and the plates were incubated overnight at 37° C. with 5% CO2 prior to treatment. Experimental compounds were serially diluted in DMSO to 200× the desired final concentrations. 0.5 μL aliquots of DMSO or the test samples were then mixed into the wells and the cells were further incubated for 24 hours. Luminescence was then measured on a Synergy 4 reader (BioTek) using the ONE-Glo Luciferase Assay System (Promega, cat. no. E6120) according to the manufacturer's instructions. Relative inhibition values were calculated by normalizing the raw data using DMSO-treated cells (0% inhibition) and wells devoid of cells (100% inhibition). IC50 values were calculated by fitting concentration-response data to a sigmoidal 4-parameter logistic model.

[2] = tested on: TEAD-dependent PD marker CTGF; test: MSTO-211H tumor xenograft pharmacodynamic (PD) study; format: in vivo, mice
Procedure: Female CB. 17 SCID mice (Charles River) were subcutaneously inoculated with 5×10^6 MSTO-211H tumor cells (ATCC, CRL-2081) in 0.1 mL of PBS mixed with matrigel (1:1) (BD Biosciences). Randomization into two groups was performed when the mean tumor size reached approximately 300-400 mm^3, after which drug treatments were started.
Animals were dosed daily orally at the specified concentrations of the compound of Example 2 or the compound of Example 11 using an oral-gavage needle. The dosing volume was 10 mL/kg per mouse, with a volume adjusted to the mouse body weight. The vehicle control (water containing 0.5% hydroxypropyl methyl cellulose (Sigma-Aldrich, #H9262) and 0.5% Tween 80 (Sigma-Aldrich, #P1754)) was administered in the same way.
PD marker analysis was performed on tumors that were collected from animals 3 hours after the last dose was given. […] The tumor protein lysates were prepared and analyzed using standard Western blot procedures. […] For quantitative PCR (qPCR) analyses, RNA was converted into cDNA following manufacturer's instructions (SuperScript™ III First-Strand Synthesis for RT-PCR, Invitrogen, #18080-051). […] The increase in fluorescence was analyzed with the instrument-specific software (Roche, LightCycler® 480 II), and a mean quantity was calculated from duplicate or triplicate PCRs for each sample using the ΔΔCt method.

NCI-H226 xenografts = test: NCI-H226 tumor xenograft efficacy study; format: in vivo; conditions: day 62, NCI-H226 xenografts in BALB/c nude mice
Procedure: Female BALB/c nude mice (GemPharmatech Co., Ltd) were subcutaneously inoculated with 10×10^6 NCI-H226 tumor cells (ATCC, CRL-5826) in 0.2 mL of PBS mixed with matrigel (1:1) (Corning). Randomization into six groups (n=8 animals per group) was performed when the mean tumor size reached approximately 150 (100-200) mm^3, after which drug treatments were started. Animals were dosed daily orally at the specified concentrations using an oral-gavage needle. The dosing volume was 10 mL/kg per mouse, with a volume adjusted to the mouse body weight. The vehicle control (water containing 0.5% hydroxypropyl methyl cellulose (Sigma-Aldrich, #H3785) and 0.5% Tween 80 (Sigma-Aldrich, #P1754) was administered in the same way. Tumor volumes were measured twice weekly in two dimensions using a caliper, and the volume was expressed in mm^3 using the formula “V=(L×W^2)/2”, where V is the tumor volume, L is the tumor length (the longest tumor dimension) and W is the tumor width (the longest tumor dimension perpendicular to L).
Animal protocols were reviewed and approved by the Institutional Animal Care and Use Committee (IACUC) at CrownBio. During the study, the care and use of animals was conducted in accordance with the regulations of the Association for Assessment and Accreditation of Laboratory Animal Care (AAALAC).

[3] = target: T1, human TEAD2 (amino acids 217-447) (Homo sapiens, UniProt Q15562); test: Thermal shift assay (TSA); format: binding; conditions: 3 μM recombinant TEAD2, compound 7 μM, shift vs DMSO control
T1 construct: human TEAD2 (amino acids 217-447); His-tag (N); purchased Proteros biostructures PR-0365; host or cells: E. coli
Procedure: The thermal shift assay (TSA) was utilized to characterize target engagement in vitro based on ligand-dependent thermal stabilization of the protein. N-terminally His-tagged human TEAD2 (amino acids 217-447) expressed and purified from E. coli was purchased from Proteros biostructures (cat no. PR-0365). The melting reactions were performed in white, 96 well qPCR plates (Roche Diagnostics, cat. no. 04 729 692 001) in 20 mM HEPES pH 7, 100 mM NaCl in the presence of 4×SYPRO orange (Sigma, cat. no. S5692). Each well contained 3 μM recombinant TEAD2 and either DMSO (control) or experimental compounds at a final concentration of 7 μM. The total volume was 20 μL and the final DMSO concentration was 1%. The plate was sealed and analyzed in a LightCycler 480 II (Roche Diagnostics) by continuously reading the fluorescence using the 465-580 nm filter set while heating from 25° C. to 95° C. using a linear gradient of 1° C./min. Melting temperatures were determined by numerical differentiation using the LightCycler Thermal Shift Analysis software (Roche Diagnostics). The shifts in melting temperature caused by experimental compounds compared to the control are expressed as ΔTm (Table 2).

T1 sequence (Q15562 217-447): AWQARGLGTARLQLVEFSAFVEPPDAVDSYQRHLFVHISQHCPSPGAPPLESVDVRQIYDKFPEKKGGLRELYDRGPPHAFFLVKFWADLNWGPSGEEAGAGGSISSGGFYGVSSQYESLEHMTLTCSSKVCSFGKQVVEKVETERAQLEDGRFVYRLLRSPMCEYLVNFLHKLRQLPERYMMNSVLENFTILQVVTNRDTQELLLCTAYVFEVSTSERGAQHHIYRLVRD

IC50 [1] [µM]	ΔTm at 7 µM [3] [°C]	SMILES	decrease of CTGF mRNA to (normalized to actin mRNA) ([2]; 250 mg/kg po qd×8, MSTO-211H tumors isolated 3 hours after last dose) [%]	final ΔT/C (NCI-H226 xenografts; 50 mg/kg po qd)	final ΔT/C (NCI-H226 xenografts; 125 mg/kg po qd)	final ΔT/C (NCI-H226 xenografts; 250 mg/kg po qd)	decrease of CTGF mRNA to (normalized to actin mRNA) ([2]; 250 mg/kg po qd×5, MSTO-211H tumors isolated 3 hours after last dose) [%]
0.041	10.6	O=c1[nH]c(-c2nccnc2Nc2ccc(C(F)(F)F)cc2)no1 [Example 2, 3-[3-[4-(trifluoromethyl)anilino]pyrazin-2-yl]-4H-1,2,4-oxadiazol-5-one]	28	0.27	0.13	0.017	
0.039	6.7	COc1ccnc(Nc2ccc(C(F)(F)F)cc2)c1-c1noc(=O)[nH]1 [Example 11, 3-[4-methoxy-2-[4-(trifluoromethyl)anilino]-3-pyridyl]-4H-1,2,4-oxadiazol-5-one]					32
0.081	6	O=c1[nH]c(-c2c(OCCF)ccnc2Nc2ccc(C(F)(F)F)cc2)no1 [Example 65, 3-[4-(2-fluoroethoxy)-2-[4-(trifluoromethyl)anilino]-3-pyridyl]-4H-1,2,4-oxadiazol-5-one]					
10.7	7.1	O=c1[nH]c(-c2c(OC3CCNCC3)ccnc2Nc2ccc(C(F)(F)F)cc2)no1 [Example 67, 3-[4-(4-piperidyloxy)-2-[4-(trifluoromethyl)anilino]-3-pyridyl]-4H-1,2,4-oxadiazol-5-one]					

SMILES	IC50 [1] [µM]	ΔTm at 7 µM [3] [°C]	decrease of CTGF mRNA to (normalized to actin mRNA) ([2]; 250 mg/kg po qd×8, MSTO-211H tumors isolated 3 hours after last dose) [%]	final ΔT/C (NCI-H226 xenografts; 50 mg/kg po qd)	final ΔT/C (NCI-H226 xenografts; 125 mg/kg po qd)	final ΔT/C (NCI-H226 xenografts; 250 mg/kg po qd)	decrease of CTGF mRNA to (normalized to actin mRNA) ([2]; 250 mg/kg po qd×5, MSTO-211H tumors isolated 3 hours after last dose) [%]
COC(C)(C)CCOc1ccnc(Nc2ccc(C(F)(F)F)cc2)c1-c1noc(=O)[nH]1 [Example 66, 3-[4-(3-methoxy-3-methyl-butoxy)-2-[4-(trifluoromethyl)anilino]-3-pyridyl]-4H-1,2,4-oxadiazol-5-one]	1.47	0.4					

Source: US20220402900A1, “1,2,4-OXADIAZOL-5-ONE DERIVATIVES FOR THE TREATMENT OF CANCER” (Basilea Pharmaceutica International AG, priority 2019, published 2022)
